Data as given in paper PMC4069108 (PLoS ONE, 2014).

Columns and labels:
[1] = target: T1, recombinant human MT1 receptor purified from Pichia pastoris (MT1 purified) (Homo sapiens, UniProt P48039); experiment: [3H]-melatonin competition, PEG precipitation and filtration; type: binding; details: for MT1 purified / pKi ± SEM: purified in […] Fos14/[…] CHAPS; […] [3H]-melatonin, […] CHAPS/[…] CHS, pH […] MgCl2, […] °C, […] h
T1 construct: gene MTNR1A; alpha-factor signal, Flag and 10-His tags
Description: [3H]-melatonin competition, PEG precipitation and filtration on recombinant human MT1 receptor purified from Pichia pastoris (MT1 purified)

[2] = target: T2, human melatonin MT1 receptor (MT1 CHO membranes) (Homo sapiens, UniProt P48039); experiment: [3H]-melatonin competition, filtration; type: binding; details: for MT1 CHO membranes / pKi ± SEM: CHO membranes; […] [3H]-melatonin, pH […] MgCl2, […] °C, […] h
T2 construct: gene MTNR1A; receptor cDNA in pcDNA3.1, no tag mentioned; crude membranes
Description: [3H]-melatonin competition, filtration on human melatonin MT1 receptor (MT1 CHO membranes)

T2 sequence (P48039 whole entry): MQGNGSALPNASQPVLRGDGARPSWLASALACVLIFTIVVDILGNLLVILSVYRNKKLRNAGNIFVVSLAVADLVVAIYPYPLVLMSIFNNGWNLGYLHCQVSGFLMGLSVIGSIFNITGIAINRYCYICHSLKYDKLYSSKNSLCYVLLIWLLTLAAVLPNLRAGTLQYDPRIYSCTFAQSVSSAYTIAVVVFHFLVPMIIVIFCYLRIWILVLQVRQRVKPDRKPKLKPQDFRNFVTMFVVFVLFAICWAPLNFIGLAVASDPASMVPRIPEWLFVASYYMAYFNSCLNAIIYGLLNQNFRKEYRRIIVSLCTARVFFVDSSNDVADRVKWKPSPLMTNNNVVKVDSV
T1 sequence (P48039 whole entry): as above

Row | Structure (SMILES) | Ki ([1]; read-out: MT1 purified / pKi ± SEM (converted)) [µM] | Ki ([2]; read-out: MT1 CHO membranes / pKi ± SEM (converted)) [µM] | MT1 purified / pKi ± SEM [1] | MT1 CHO membranes / pKi ± SEM [2]
1 | NCCc1c[nH]c2ccc(O)cc12 [5HT] | > 10 | > 10 | – | –
2 | COc1ccc2[nH]c(-c3cccc4ccccc34)c(CCNC(=O)CI)c2n1 [S 70254] | – | – | 8.51±0.12 pKi (-log M) | 7.32±0.31 pKi (-log M)
3 | COc1ccc2ncn(CCNC(C)=O)c2c1 [S 21278] | – | – | 7.02±0.14 pKi (-log M) | 7.71±0.14 pKi (-log M)
4 | COc1ccc(CCN(C)CCCC(C#N)(c2cc(OC)c(OC)c(OC)c2)C(C)C)cc1OC (centres unmarked) [D600] | – | – | 7.25±0.06 pKi (-log M) | 7.76±0.15 pKi (-log M)
